From paper PMC11851430, “Workflow for E3 Ligase Ligand Validation for PROTAC Development” (ACS Chemical Biology, 2025) come the findings set out here.

One assay deals with T1, WNK1A (Homo sapiens, UniProt Q9H4A3).
T1 construct: purchased in-house DSF panel (SGC-style construct names; the trailing A/B is a construct suffix)
The assay can be described thus: DSF assay. The note with it: 20 µM compound. It counts as binding. On the technique in general: Differential scanning fluorimetry follows unfolding on heating by fluorescence.

A further assay concerns the target T2, MELKA (Homo sapiens, UniProt Q14680).
T2 construct: purchased in-house DSF panel (SGC-style construct names; the trailing A/B is a construct suffix)
As to the kind of experiment: DSF assay. Format: binding. Conditions: 20 µM compound.

In the next assay the target is T3, BRAFA (Homo sapiens, UniProt P15056).
T3 construct: purchased in-house DSF panel (SGC-style construct names; the trailing A/B is a construct suffix)
T3 sequence (P15056 448-723): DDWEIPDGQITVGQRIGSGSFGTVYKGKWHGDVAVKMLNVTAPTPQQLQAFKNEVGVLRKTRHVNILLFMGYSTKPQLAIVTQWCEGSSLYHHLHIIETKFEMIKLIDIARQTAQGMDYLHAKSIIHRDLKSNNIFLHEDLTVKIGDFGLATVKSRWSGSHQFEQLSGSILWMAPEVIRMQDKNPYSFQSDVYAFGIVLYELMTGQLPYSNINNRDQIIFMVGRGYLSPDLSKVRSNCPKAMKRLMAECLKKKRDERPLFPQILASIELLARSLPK
The assay can be described thus: DSF assay. Format: binding. Conditions: 20 µM compound.

A further assay has as its target T4, NEK1A (Homo sapiens, UniProt Q96PY6).
T4 construct: purchased in-house DSF panel (SGC-style construct names; the trailing A/B is a construct suffix)
T4 sequence (Q96PY6 1-328): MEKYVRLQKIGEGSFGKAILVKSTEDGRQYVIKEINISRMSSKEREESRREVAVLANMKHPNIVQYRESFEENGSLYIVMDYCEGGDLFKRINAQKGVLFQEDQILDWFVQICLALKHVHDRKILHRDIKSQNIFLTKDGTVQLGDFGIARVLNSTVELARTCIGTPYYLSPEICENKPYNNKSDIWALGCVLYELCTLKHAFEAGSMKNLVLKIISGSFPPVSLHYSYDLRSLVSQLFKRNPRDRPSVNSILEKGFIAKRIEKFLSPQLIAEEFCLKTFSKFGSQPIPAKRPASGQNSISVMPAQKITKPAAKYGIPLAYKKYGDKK
The assay can be described thus: DSF assay. It counts as binding. The note with it: 20 µM compound.

The target in another assay is T5, PAK1A (Homo sapiens, UniProt Q13153).
T5 construct: purchased in-house DSF panel (SGC-style construct names; the trailing A/B is a construct suffix)
T5 sequence (Q13153 249-545): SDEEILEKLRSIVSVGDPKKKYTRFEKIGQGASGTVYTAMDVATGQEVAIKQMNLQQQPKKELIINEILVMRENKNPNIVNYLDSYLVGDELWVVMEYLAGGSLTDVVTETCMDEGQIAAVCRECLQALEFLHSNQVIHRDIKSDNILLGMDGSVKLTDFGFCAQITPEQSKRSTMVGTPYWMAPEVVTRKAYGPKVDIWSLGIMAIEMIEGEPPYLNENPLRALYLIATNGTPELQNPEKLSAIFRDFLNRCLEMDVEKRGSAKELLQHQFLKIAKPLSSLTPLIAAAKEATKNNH
The assay can be described thus: DSF assay. The note with it: 20 µM compound. It counts as binding.

The next assay addresses T6, AKT3A (Homo sapiens, UniProt Q9Y243).
T6 construct: purchased in-house DSF panel (SGC-style construct names; the trailing A/B is a construct suffix)
The assay can be described thus: DSF assay. It counts as binding. The note with it: 20 µM compound.

For another assay, the system named is RPS6K5A. The assay can be described thus: DSF assay. It counts as binding. The note with it: 20 µM compound.
A further assay deals with T7, MST3A (Homo sapiens, UniProt Q9Y6E0).
T7 construct: purchased in-house DSF panel (SGC-style construct names; the trailing A/B is a construct suffix)
T7 sequence (Q9Y6E0 4-301): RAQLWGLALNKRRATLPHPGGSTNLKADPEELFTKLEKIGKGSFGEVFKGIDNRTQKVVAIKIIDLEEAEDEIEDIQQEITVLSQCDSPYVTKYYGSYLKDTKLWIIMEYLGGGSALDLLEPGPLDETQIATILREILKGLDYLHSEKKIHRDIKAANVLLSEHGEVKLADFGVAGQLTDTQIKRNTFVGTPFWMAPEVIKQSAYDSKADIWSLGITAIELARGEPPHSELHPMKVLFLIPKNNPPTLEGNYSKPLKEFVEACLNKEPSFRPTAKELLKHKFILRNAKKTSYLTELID
As to the kind of experiment: DSF assay. It counts as binding. The note with it: 20 µM compound.

For another assay, the target named is T8, GSG2A (Homo sapiens, UniProt Q8TF76).
T8 construct: purchased in-house DSF panel (SGC-style construct names; the trailing A/B is a construct suffix)
T8 sequence (Q8TF76 465-798): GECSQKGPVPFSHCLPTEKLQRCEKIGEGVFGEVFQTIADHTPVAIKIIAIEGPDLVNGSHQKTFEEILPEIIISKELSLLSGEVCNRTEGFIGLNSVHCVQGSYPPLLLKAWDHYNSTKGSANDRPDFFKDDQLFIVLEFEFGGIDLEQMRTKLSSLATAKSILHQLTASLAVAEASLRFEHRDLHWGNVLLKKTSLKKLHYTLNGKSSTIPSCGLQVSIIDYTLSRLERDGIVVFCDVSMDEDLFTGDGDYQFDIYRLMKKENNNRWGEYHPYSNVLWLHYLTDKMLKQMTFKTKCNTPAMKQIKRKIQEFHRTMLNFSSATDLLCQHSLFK
The assay can be described thus: DSF assay. Format: binding. Conditions: 20 µM compound.

Another assay has as its target T9, PHKG2A (Homo sapiens, UniProt P15735).
T9 construct: purchased in-house DSF panel (SGC-style construct names; the trailing A/B is a construct suffix)
T9 sequence (P15735 6-293): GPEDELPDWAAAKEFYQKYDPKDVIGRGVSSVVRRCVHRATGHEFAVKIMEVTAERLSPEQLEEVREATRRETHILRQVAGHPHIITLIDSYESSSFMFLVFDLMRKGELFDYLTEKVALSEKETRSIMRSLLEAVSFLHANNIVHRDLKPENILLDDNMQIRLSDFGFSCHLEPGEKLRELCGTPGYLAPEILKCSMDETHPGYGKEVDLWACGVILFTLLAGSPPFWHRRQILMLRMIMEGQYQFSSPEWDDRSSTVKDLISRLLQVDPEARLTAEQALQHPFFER
As to the kind of experiment: DSF assay. Format: binding. Conditions: 20 µM compound.

A further assay deals with T10, ULK3A (Homo sapiens, UniProt Q6PHR2).
T10 construct: purchased in-house DSF panel (SGC-style construct names; the trailing A/B is a construct suffix)
T10 sequence (Q6PHR2 1-277): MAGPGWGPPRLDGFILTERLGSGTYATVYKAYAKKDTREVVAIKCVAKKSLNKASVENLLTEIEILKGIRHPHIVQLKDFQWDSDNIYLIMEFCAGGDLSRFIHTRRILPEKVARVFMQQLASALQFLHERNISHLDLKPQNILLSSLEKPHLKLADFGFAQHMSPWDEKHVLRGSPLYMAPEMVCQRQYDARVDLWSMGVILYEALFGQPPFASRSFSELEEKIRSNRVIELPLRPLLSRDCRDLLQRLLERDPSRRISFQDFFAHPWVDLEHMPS
The assay can be described thus: DSF assay. Format: binding. The note with it: 20 µM compound.

The target in a further assay is T11, AURKA (Homo sapiens, UniProt O14965).
T11 sequence (O14965 1-403): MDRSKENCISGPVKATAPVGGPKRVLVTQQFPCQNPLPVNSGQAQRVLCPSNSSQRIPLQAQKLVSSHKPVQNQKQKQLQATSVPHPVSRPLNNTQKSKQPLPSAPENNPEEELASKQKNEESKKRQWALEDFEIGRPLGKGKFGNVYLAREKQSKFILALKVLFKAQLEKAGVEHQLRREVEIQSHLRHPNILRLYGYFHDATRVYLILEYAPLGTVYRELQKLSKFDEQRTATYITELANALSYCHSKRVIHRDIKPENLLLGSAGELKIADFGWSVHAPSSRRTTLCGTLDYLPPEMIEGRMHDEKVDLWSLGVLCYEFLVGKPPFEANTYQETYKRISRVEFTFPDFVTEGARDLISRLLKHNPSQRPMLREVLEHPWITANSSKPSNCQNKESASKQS
The assay can be described thus: Western blot assay. Format: cell-based. Details: endogenous in cells; host or cells: Jurkat. Conditions: Jurkat cells, 6 h. How it is done:
Two mL of Jurkat cells were seeded into 6 well plates (Greiner) at a density of 5·10 5 cells/mL.
The following day, cells were treated with compounds at according concentrations or DMSO for 6 hours and then lysed with 6 M Urea at 4 °C for 20 minutes. The lysates were centrifuged for 15 minutes at 16000 g and the supernatant was collected to perform the Western-Blot.
Protein quantification was performed using nanodrop One. The SDS samples were prepared […]
The samples were separated by a BIS-TRIS polyacrylamide gel polyacrylamide gel, 100 V for 1:45) followed by transfer to PVDF membranes (Millipore) at 350 mA for 140 minutes. The membranes were blocked using 5%wt/vol BSA (in TBS-T, 20 mM Tris-HCl, pH 7.5, 150 mM NaCl and 0.1% (vol/vol) Tween 20) at room temperature for 1 hour.
The blots were incubated with respective primary antibodies at 1:1000 dilution (Cell Signaling technologies: Aurora A (D3E4Q), ITK (2F12) and GAPDH (D4C6R)) at 4 °C overnight. The blots were washed with TBS-T thrice and incubated with 1:5000 dilution of horseradish peroxidase (HRP)-labelled respective secondary antibodies (Cell Signaling technologies, Anti- […]
The blots were washed with TBS-T thrice and then incubated with chemiluminescent HRP substrate (Bio-Rad) for 2 minutes. The blots were imaged and the signals were detected using the Amersham ImageQuant 800 (Cytiva).
Cell culture. Human MV4-11 ([…]) and human Jurkat ([…]) cells were cultured in RPMI- […]
°C in 5% CO2. Both media were supplemented with 10% FBS and 1% penicillin/streptomycin. […]

Each structure is given as a SMILES string.

T6 sequence (Q9Y243 141-479): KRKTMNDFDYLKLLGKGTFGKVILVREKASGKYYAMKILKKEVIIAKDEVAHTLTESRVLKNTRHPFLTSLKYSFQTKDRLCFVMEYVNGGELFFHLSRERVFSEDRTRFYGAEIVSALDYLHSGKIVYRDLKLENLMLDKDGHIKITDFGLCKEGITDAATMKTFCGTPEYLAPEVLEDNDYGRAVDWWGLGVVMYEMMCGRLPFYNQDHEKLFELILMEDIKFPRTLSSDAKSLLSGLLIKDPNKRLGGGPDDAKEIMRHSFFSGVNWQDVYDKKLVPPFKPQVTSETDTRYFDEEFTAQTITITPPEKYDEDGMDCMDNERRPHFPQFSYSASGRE
T2 sequence (Q14680 1-340): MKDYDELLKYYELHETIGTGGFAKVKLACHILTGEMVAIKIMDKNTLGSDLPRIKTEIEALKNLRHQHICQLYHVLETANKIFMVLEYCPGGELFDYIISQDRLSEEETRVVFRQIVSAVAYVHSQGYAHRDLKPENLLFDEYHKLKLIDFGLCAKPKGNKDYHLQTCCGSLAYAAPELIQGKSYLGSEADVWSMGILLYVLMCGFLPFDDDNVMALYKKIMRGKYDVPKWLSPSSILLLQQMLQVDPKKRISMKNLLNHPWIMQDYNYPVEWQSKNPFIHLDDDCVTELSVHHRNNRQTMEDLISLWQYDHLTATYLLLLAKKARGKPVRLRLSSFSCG
T1 sequence (Q9H4A3 206-483): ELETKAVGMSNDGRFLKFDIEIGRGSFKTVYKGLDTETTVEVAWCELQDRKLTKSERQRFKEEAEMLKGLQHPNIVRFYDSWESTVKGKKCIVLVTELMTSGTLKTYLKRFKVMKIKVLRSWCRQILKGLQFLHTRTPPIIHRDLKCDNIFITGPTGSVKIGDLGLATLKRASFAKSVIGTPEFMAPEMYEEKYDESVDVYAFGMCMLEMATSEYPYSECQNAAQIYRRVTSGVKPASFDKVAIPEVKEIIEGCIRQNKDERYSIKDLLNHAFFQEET

In the case of `CCOC(=O)c1cc(Nc2cc(C3CC3)[nH]n2)nc(Nc2ccc(CC#N)cc2)n1` [compound 5], the ΔTm – broadly, the shift of the melting midpoint relative to a reference – at 20 µM at WNK1A worked out at 0.55 °C; on MELKA, 9.78 °C; at BRAFA, 1.72 °C; at NEK1A, 0.62 °C; on PAK1A, 1.05 °C; on AKT3A, 1.18 °C. For the same compound, the ΔTm at 20 µM at MST3A was found to be 7.56 °C; at GSG2A it was 2.54 °C; on PHKG2A, 7.46 °C; at ULK3A it was 15.4 °C. Further, the ΔTm in the assay on RPS6K5A amounted to 14.62 °C.

`Cc1ncsc1-c1ccc(CNC(=O)[C@@H]2C[C@@H](O)CN2C(=O)[C@@H](NC(=O)CCOCCOCCOCCN2CCN(c3cc(Nc4cc(C5CC5)[nH]n4)nc(Nc4ccc(CC#N)cc4)n3)CC2)C(C)(C)C)cc1` [4-a]: the “AURKA protein levels (Western blot)” value at AURKA is “only a weak reduction in AURKA levels”.

Take `CC(C)(C)OC(=O)NCCOCCOCCOCCOCCC(=O)N1CCN(c2cc(Nc3cc(C4CC4)[nH]n3)nc(Nc3ccc(CC#N)cc3)n2)CC1` [4-L]: the ΔTm at 20 µM on WNK1A came to 1.05 °C; on MELKA, 10.1 °C; at BRAFA it was 1.63 °C; on NEK1A, 0.45 °C; at PAK1A, 0.92 °C; on AKT3A it was 0.51 °C. In addition, the ΔTm at 20 µM came out at 8.31 °C on MST3A, 1.36 °C at GSG2A, 8.76 °C at PHKG2A and 18.5 °C at ULK3A. Further, the ΔTm in the assay with RPS6K5A was found to be 9.52 °C.

In the case of `Cc1ncsc1-c1ccc(CNC(=O)[C@@H]2C[C@H](O)CN2C(=O)[C@@H](NC(=O)CCOCCOCCOCCOCCN2CCN(c3ccc(Nc4ncc(Cl)c(Nc5ccccc5C(N)=O)n4)cc3)CC2)C(C)(C)C)cc1` [6-b^neg], the “AURKA protein levels (Western blot)” value at AURKA is “no effect on AURKA levels”.

Consider `Cc1ncsc1-c1ccc(CNC(=O)[C@@H]2C[C@H](O)CN2C(=O)[C@@H](NC(=O)CCOCCOCCOCCN2CCN(c3cc(Nc4cc(C5CC5)[nH]n4)nc(Nc4ccc(CC#N)cc4)n3)CC2)C(C)(C)C)cc1` [4-a^neg], for which the “AURKA protein levels (Western blot)” value at AURKA was “no effect on AURKA levels”.

With `Cc1ncsc1-c1ccc(CNC(=O)[C@@H]2C[C@@H](O)CN2C(=O)[C@@H](NC(=O)CCOCCOCCOCCOCCN2CCN(c3ccc(Nc4ncc(Cl)c(Nc5ccccc5C(N)=O)n4)cc3)CC2)C(C)(C)C)cc1` [6-b], on AURKA, the “AURKA protein levels (Western blot)” value was “only a weak reduction in AURKA levels”.

As for `CC(C)(C)OC(=O)NCCCOCCOCCOCCCNC(=O)c1cc(Nc2cc(C3CC3)[nH]n2)nc(Nc2ccc(CC#N)cc2)n1` [5-L], the ΔTm at 20 µM on WNK1A was 0.56 °C; at MELKA it was 8.44 °C; at BRAFA, 2.09 °C; at NEK1A, 0.017 °C; on PAK1A it was -0.24 °C; on AKT3A it was 0.12 °C. The shift in melting temperature (ΔTm) at 20 µM at MST3A is 3.47 °C; at GSG2A, 1.49 °C; on PHKG2A, 5.86 °C; at ULK3A, 13.3 °C. For the same compound, the ΔTm in the assay with RPS6K5A was found to be 11.21 °C.
